Data taken from patent publication US20160015034A1, “Co-Crystals of Pyrimethanil and Selected Dithiine Tetracarboximide” (BASF SE, priority 2013, published 2016).
≈ marks a conversion by molar mass, not a printed value.

Columns and labels:
[1] = Water solubility by slurry equilibration and HPLC; assay type: physicochemical; conditions: pH 7, aqueous buffer, thermodynamic from solid
Experimental: Water Solubility of the Co-Crystals
The determination of the amount of the actives in solution was performed on HPLC ACQUITY (Water) system, equipped with PDA—230 nm UV detector and Sample Manager auto-injector.
Waters' Enpower software was used to record the chromatograms and to calculate the chromatographic parameters. Gradient elution (Acetonitrile—0.1% H3PO4) was achieved using C18 column, 50×2.1 mm, 1.7 μm BEH. Injection volume was set 1 μL by auto injector. The analysis were performed with rate flux of 0.4 ml/min. UV detection was performed at 245 nm. Peak identities were confirmed by spectrum and retention time comparison. All the analyses were performed at room temperature. All the analyzed solutions were prepared by slurry equilibration experiments. Particularly, water suspensions (KH2PO4/NaOH buffer having pH value of 7) of dithiine, pyrimethanil and the co-crystals were slurried for 1 hour, according with the maximum value of the intrinsic dissolution profile of the pure active. After 60 minutes small samples of about 1.0 ml were recovered with a syringe and filtered through a 0.1 micrometer PVDF Millipore filtration unit. Both solid phase and liquid phase were analyzed by XRPD and HPLC, respectively.

[2] = Isothermal TGA volatility study; assay type: physicochemical; conditions: isothermal TGA at 100 C., nitrogen flow, weight loss monitored for 12 hours
Experimental: Isothermal Analysis of the Co-Crystals
TG/DTA measurement was carried out on a Seiko TG/DTA 7200 instrument. An open aluminium pan was used and the measurement was carried out under nitrogen flow with a sample weight of 5 to 10 mg. The isothermal TGA for volatility studies were performed at 100 C. and the weight loss was monitored for 12 hours.

Row | SMILES | solubility at 1 h [1] | TGA Volatility (% weight loss per minute) [2]
1 | Cn1c(=O)c2sc3c(=O)n(C)c(=O)c3sc2c1=O | 2 µg/mL (≈ 7.08 µM) | 5.45 × 10^−3 % weight loss per minute
2 | Cc1cc(C)nc(Nc2ccccc2)n1 [pyrimethanil] | 58 µg/mL (≈ 291 µM) | 1.20 × 10^−2 % weight loss per minute
